Test results published in patent US4618692A, “4-carbamoyloxy-oxazaphosphorins” (Asta-Werke Aktiengesellschaft, priority 1984, dated 1986).

Experiment: cytotoxicity in vitro (general statement)
Type: cell-based

In the case of `O=P1(N(CCCl)CCCl)NCCCO1` (stereo not shown) [cyclophosphamide, 2-[bis-(2-chloroethyl)-amino]-2-oxo-tetrahydro-2H-1,3,2-oxazaphosphorin], the cytotoxicity in vitro was “practically no cytotoxic effect in vitro”.
